EC50, CC50 and IC50 data for 17 compounds are collected here from ChEMBL document CHEMBL3763076, “Novel 2-phenyl-5-[(E)-2-(thiophen-2-yl)ethenyl]-1,3,4-oxadiazole and 3-phenyl-5-[(E)-2-(thiophen-2-yl)ethenyl]-1,2,4-oxadiazole derivatives as dengue virus inhibitors targeting NS5 polymerase” (Eur J Med Chem, 2016).

Data set [1] concerns dengue virus type 1. The data set can be described thus: Antiviral activity against clinical isolates of Dengue virus 1 Indonesia JKT 1186 TVP 949 infected in African green monkey Vero E6 cells assessed as reduction in viral RNA after 4 days by qRT-PCR method. In kind it is functional, organism-based. The conditions noted are these: Indonesia JKT 1186 TVP 949, Vero, 96 h.
In data set [2] the test system is dengue virus type 4. The data set can be described thus: Antiviral activity against clinical isolates of Dengue virus 4 Dakar HD34460 infected in African green monkey Vero E6 cells assessed as reduction in viral RNA after 4 days by qRT-PCR method. The conditions noted are these: 96 h. Type of data set: functional, organism-based. In general terms: Real-time PCR tracks product formation cycle by cycle.

Data set [3] can be described thus: Cytotoxicity against African green monkey Vero E6 cells assessed as reduction in cell viability treated for 3 days measured on day 4 by cell titer-blue fluorescent assay. Type of data set: cell-based. The conditions noted are these: chlorocebus sabaeus. A general note: Resazurin is reduced to fluorescent resorufin, in cell work by metabolically active cells.
Data set [4] concerns dengue virus type 3. The data set can be described thus: Antiviral activity against clinical isolates of Dengue virus 3 Bolivia 4025 infected in African green monkey Vero E6 cells assessed as reduction in viral RNA after 4 days by qRT-PCR method. Type of data set: functional, organism-based. The conditions noted are these: Bolivia 4025, Vero, 96 h.
Data set [5] concerns dengue virus type 4. The data set can be described thus: Antiviral activity against clinical isolates of Dengue virus 4 Martinique 017 infected in African green monkey Vero E6 cells assessed as reduction in viral RNA after 4 days by qRT-PCR method. In kind it is functional, organism-based. The conditions noted are these: Martinique 017, Vero, 96 h.
Data set [6] concerns dengue virus type 2. The data set can be described thus: Antiviral activity against clinical isolates of Dengue virus 2 Martinique H/IMTSSA-MART/98-703 infected in African green monkey Vero E6 cells assessed as reduction in viral RNA after 4 days by qRT-PCR method. In kind it is functional, organism-based. The conditions noted are these: Martinique H/IMTSSA-MART/98-703, Vero, 96 h.

Data set [7] concerns dengue virus type 2. The experiment in a line: Antiviral activity against clinical isolates of Dengue virus 2. Type of data set: functional, organism-based.
The test system of data set [8] is dengue virus type 4. The data set can be described thus: Antiviral activity against clinical isolates of Dengue virus 4. Type of data set: functional, organism-based.
The subject of data set [9] is dengue virus type 1. The experiment in a line: Antiviral activity against clinical isolates of Dengue virus 1. Type of data set: functional, organism-based.
For data set [10], the system named is dengue virus type 3. The experiment in a line: Antiviral activity against clinical isolates of Dengue virus 3. Type of data set: functional, organism-based.
The nature of data set [11]: Inhibition of Dengue virus 2 RdRp using homopolymeric uridine RNA as template assessed as reduction in RNA synthesis incubated for 10 mins by picogreen fluorescent assay. Set-up: species or system dengue virus type 2.

One may read the EC50 as the concentration at which the effect is half-maximal. One may read the CC50 as the concentration at which the toxic effect on the cells reaches its halfway point. Consider `C#C[C@@]1(O)[C@H](O)[C@@H](CO)O[C@H]1n1ccc2c(N)ncnc21`, for which the EC50 in the data set on dengue virus type 1 [1] stood at 860 nM; in the data set on dengue virus type 4 [2], 80 nM; in the data set on dengue virus type 3 [4] it was 120 nM; in the data set on dengue virus type 4 [5], 30 nM; with dengue virus type 2 [6] it was 820 nM. In addition, in [3], the CC50 at 72 h is above 100000 nM. Turning to `O=C(/C=C/c1ccc(Br)s1)Nc1ccc(Cl)c(Cl)c1`, the 50% effective concentration (EC50) in the data set with dengue virus type 2 [7], in the data set with dengue virus type 4 [8], in the data set with dengue virus type 1 [9] and with dengue virus type 3 [10] was 40 nM in each case. In general, IC50 refers to the concentration that inhibits the measured activity by half. Regarding `CN(C)c1ccc(-c2nnc(/C=C/c3ccc(Br)s3)o2)cc1`, the IC50 in data set [11] is 20000 nM. `COc1ccc(-c2nnc(/C=C/c3ccc(-c4ccccc4)s3)o2)cc1`: the 50% inhibitory concentration (IC50) in data set [11] was 22000 nM. `C(=C\c1ccc(-c2ccccc2)s1)/c1nnc(-c2ccccc2)o1`: the IC50 in [11] is 18800 nM. Turning to `FC(F)(F)c1ccc(-c2noc(/C=C/c3ccc(Br)s3)n2)cc1`, the half-maximal inhibitory concentration (IC50) in data set [11] was 21000 nM. On to `O=C(/C=C/c1ccc(-c2ccccc2)s1)Nc1cccc(Cl)c1`, for which the EC50 in the data set with dengue virus type 2 [7], in the data set with dengue virus type 4 [8], in the data set with dengue virus type 1 [9] and with dengue virus type 3 [10] was 400 nM each time. As for `Brc1cccc(-c2nnc(/C=C/c3ccc(-c4ccccc4)s3)o2)c1`, in [11], the IC50 was 53900 nM. On the same count and under the same terms, then `Fc1ccc(-c2nnc(/C=C/c3ccc(-c4ccccc4)s3)o2)cc1`, with 17400 nM.

As for `FC(F)(F)Oc1ccc(-c2noc(/C=C/c3ccc(Br)s3)n2)cc1`, the IC50 in data set [11] stood at 32600 nM. Take `O=C(/C=C/c1ccc([N+](=O)[O-])s1)Nc1ccc([N+](=O)[O-])cc1O`: the concentration for half-maximal inhibition (IC50) in data set [11] is 1300 nM. In the case of `CN(C)c1ccc(-c2nnc(/C=C/c3ccc(-c4ccccc4)s3)o2)cc1`, the IC50 in [11] was determined as 41900 nM. `Fc1cccc(-c2nnc(/C=C/c3ccc(Br)s3)o2)c1`: the 50% inhibitory concentration (IC50) in data set [11] is 16300 nM. For the compound `Fc1ccc(-c2nnc(/C=C/c3ccc(Br)s3)o2)cc1`, the half-inhibitory concentration (IC50) in [11] was 16300 nM.

Take `Clc1ccc(-c2nnc(/C=C/c3ccc(-c4ccccc4)s3)o2)cc1Cl`: in [11], the concentration for half-maximal inhibition (IC50) was 24300 nM. Take `Brc1ccc(/C=C/c2nnc(-c3ccccc3)o2)s1`: in data set [11], the IC50 is 16100 nM. As for `O=c1cc(-c2ccc(Oc3c(O)cc4oc(-c5ccc(O)cc5)cc(=O)c4c3O)cc2)oc2cc(O)cc(O)c12` [HINOKIFLAVONE], the half-inhibitory concentration (IC50) in [11] stood at 450 nM.
